Where a name gives a salt, the structure may show the parent alone.

The first assay relates to HT-29 cells. The assay is described as follows: HT-29 cell viability (necroptosis) assay. It counts as cell-based. The conditions noted are these: Homo sapiens, TNF-α (40 ng/mL), Smac mimetic (100 nM), z-VAD (20 μM), 40 h, from survival rate curve. The procedure: Human colon cancer HT-29 cells were used in a necroptosis assay. For this assay, HT-29 cells were added to 96-well plates. The compounds at different concentrations (0.3, 1.0, 3.0, 10.0, 20.0 μM) were then preprocessed for two hours. TNF-α (40 ng/mL), Smac mimetic (100 nM) and z-VAD (20 μM) were added, and the mixture was incubated for 40 h. Quantitative analysis of cell viability was conducted. DMSO pretreatment group was used as a negative control. Concentration for 50% of maximal effect was calculated according to the curve of the survival rate measured at different concentrations. FIG. 1 depicts the EC50 curves of compound A16.
With `CC1(C)C(=O)c2cc3nccc(Nc4cc(O)c(F)cc4F)c3cc2S1(=O)=O` [Compound B15], the EC50 amounted to 720 nM.
`CC1=Cc2cc3nccc(Nc4ccn5ccnc5c4)c3cc2S1(=O)=O` [Compound A67, 8-(imidazo[1,2-a]pyridin-7-ylamino)-2-methylthieno[2,3-g]quinoline 1,1-dioxide] showed an EC50 of 5710 nM.
`CC1=CS(=O)(=O)c2cc3c(Nc4cc(O)c(F)cc4F)ccnc3cc21` [Compound A83] had a concentration giving a half-maximal response (EC50) of 1000 nM.
The same measure, in the same setting: the value for `O=S1(=O)C=Cc2cc3nccc(Nc4ccc5scnc5c4)c3cc21` [Compound A2] was 1020 nM; that for `O=S1(=O)C=C(c2ccc(O)cc2)c2cc3nccc(Nc4ccc5scnc5c4)c3cc21` [Compound A24] was 500 nM.
`CC1=C(C)S(=O)(=O)c2cc3c(Nc4ccc5scnc5c4)ccnc3cc21` [Compound A8]: the midpoint of the response, the EC50, lay at 530 nM.
On the same count and under the same terms, the value for `O=S1(=O)C=C(OC2CCOC2)c2cc3nccc(Nc4ccc5scnc5c4)c3cc21` (centres unmarked) [Compound A115] was 280 nM.
The compound `CC1(C)C(=O)c2cc3nccc(Nc4cc(O)c(Cl)cc4F)c3cc2S1(=O)=O` [Compound B16] returned a 50% effective concentration (EC50) of 1260 nM. This EC50 lies about 4.5-fold higher than the previous one.
The same measure, in the same setting: the value for `O=S1(=O)C=C(C2CC2)c2cc3nccc(Nc4ccc5nn[nH]c5c4)c3cc21` [Compound A92] was 420 nM; that for `O=S1(=O)C=C(c2cn[nH]c2)c2cc3nccc(Nc4ccc5scnc5c4)c3cc21` [Compound A30] was 97 nM.
Still for that read-out and setting: for `COC1=CS(=O)(=O)c2cc3c(Nc4ccc5scnc5c4)ccnc3cc21` [Compound A12, 8-(benzo[d]thiazol-5-ylamino)-3-methoxythieno[2,3-g]quinoline 1,1-dioxide] the value was 1030 nM; for `N#Cc1ccc(C2=CS(=O)(=O)c3cc4c(Nc5ccc6scnc6c5)ccnc4cc32)cc1` [Compound A25], 300 nM.
Still for that read-out and setting: the value for `O=S1(=O)C=C(OC2COC2)c2cc3nccc(Nc4ccc5scnc5c4)c3cc21` [Compound A118] was 290 nM; that for `COc1ccc(C2=CS(=O)(=O)c3cc4c(Nc5ccc6scnc6c5)ccnc4cc32)cc1` [Compound A23] was 1040 nM; that for `CN1CCC(OC2=CS(=O)(=O)c3cc4c(Nc5ccc6scnc6c5)ccnc4cc32)C1` (centres unmarked) [Compound A114] was 310 nM.
The compound `Cc1cc(C2=CS(=O)(=O)c3cc4c(Nc5ccc6scnc6c5)ccnc4cc32)n(C)n1` [Compound A32] yielded a 50% effective concentration (EC50) of 1200 nM.
The same measure, in the same setting: the value for `O=S1(=O)C=C(C2CC2)c2cc3nccc(Nc4cc(O)c(F)cc4F)c3cc21` [Compound A100] was 950 nM; that for `CC1=Cc2cc3nccc(Nc4n[nH]c5ccc(F)cc45)c3cc2S1(=O)=O` [Compound A36] was 5790 nM.
`O=S1(=O)C=C(O[C@H]2CCOC2)c2cc3nccc(Nc4ccc5scnc5c4)c3cc21` [Compound A117]: the EC50 came out at 390 nM.
`O=S1(=O)C=C(C2CC2)c2cc3nccc(Nc4ccn5ccnc5c4)c3cc21` [Compound A104] came in with an EC50 of 12000 nM.
On the same count and under the same terms, the value for `O=S1(=O)C=C(C2CC2)c2cc3nccc(Nc4cc(O)c(Cl)cc4F)c3cc21` [Compound A101] was 400 nM.
Same read-out and setting: the value for `CC1=Cc2cc3nccc(Nc4cc(O)ccc4F)c3cc2S1(=O)=O` [Compound A52] was 260 nM; that for `O=S1(=O)CC2(CCCO2)c2cc3nccc(Nc4ccc5scnc5c4)c3cc21` (centres unmarked) [Compound B27] was 2200 nM.
Still for that read-out and setting: for `O=S1(=O)C=C(C2CC2)c2cc3nccc(Nc4cncc(O)c4)c3cc21` [Compound A102] the value was 9000 nM; for `O=C1CS(=O)(=O)c2cc3c(Nc4ccc5scnc5c4)ccnc3cc21` [Compound B3, 8-(benzo[d]thiazol-5-ylamino)thieno[2,3-g]quinolin-3(2H)-one 1,1-dioxide hydrochloride], 3240 nM.

Staying with this assay, now noted: Homo sapiens, compound at 20 μM, TNF-α (40 ng/mL), Smac mimetic (100 nM), z-VAD (20 μM), 40 h, read-out: HT-29(20 μM) Survival.
Regarding `CC1(C)C(=O)c2c(cc3c(Nc4ccc5scnc5c4)ccnc3c2C2CC2)S1(=O)=O` [Compound B12, 8-(benzo[d]thiazol-5-ylamino)-4-cyclopropyl-2,2-dimethylthieno[2,3-g]quinolin-3(2H)-one 1,1-dioxide], the viability at 20 µM came to 10.3%.
The same measure, in the same setting: for `Nc1cncc(Nc2ccnc3cc4c(cc23)S(=O)(=O)C=C4C2CC2)c1` [Compound A103] the value was 46.1%; for `CC1=Cc2cc3nccc(Nc4ccc5ncnn5c4)c3cc2S1(=O)=O` [Compound A68], 11.9%.
Still for that read-out and setting: for `CC1=Cc2cc3nccc(Nc4ccc5cn[nH]c5c4)c3cc2S1(=O)=O` [Compound A35] the value was 33%.
The same measure, in the same setting: for `O=S1(=O)C=Cc2cc3nccc(Nc4ccc5scnc5c4)c3c(O)c21` [Compound A109] the value was 25%; for `N#Cc1cccc(Nc2ccnc3cc4c(cc23)S(=O)(=O)C=C4C2CC2)c1` [Compound A97], 22.5%; for `CC1=CS(=O)(=O)c2cc3c(Nc4ccc5cn[nH]c5c4)ccnc3cc21` [Compound A72], 40.7%.
For the compound `CC1=Cc2cc3nccc(Nc4cc(N)ncc4C)c3cc2S1(=O)=O` [Compound A63], the viability at 20 µM was 48.8%.
Still for that read-out and setting: the value for `COc1ccc(C2CS(=O)(=O)c3cc4c(Nc5ccc6scnc6c5)ccnc4cc32)cc1` (centres unmarked) [Compound B24] was 16.5%; that for `CC(C)C1=CS(=O)(=O)c2cc3c(Nc4ccc5scnc5c4)ccnc3cc21` [Compound A11] was 34.5%; that for `CC1=CS(=O)(=O)c2cc3c(Nc4n[nH]c5ccc(F)cc45)ccnc3cc21` [Compound A73] was 40.7%.
As for `CNCCOC1=CS(=O)(=O)c2cc3c(Nc4ccc5scnc5c4)ccnc3cc21` [Compound A111], the viability at 20 µM worked out at 42%.
For `CC1=Cc2cc3nccc(Nc4cnc5snc(C)c5c4)c3cc2S1(=O)=O` [Compound A44], the viability at 20 µM worked out at 20.1%.
Same read-out and setting: for `CC1=Cc2cc3nccc(Nc4cc(CN)ccc4C)c3cc2S1(=O)=O` [Compound A50, 8-((5-(aminomethyl)-2-methylphenyl)amino)-2-methylthieno[2,3-g]quinoline 1,1-dioxide] the value was 17.9%; for `O=S1(=O)C=C(n2ccnc2)c2cc3nccc(Nc4ccc5scnc5c4)c3cc21` [Compound A34], 15.5%; for `CC1=Cc2cc3nccc(Nc4ccn5ncnc5c4)c3cc2S1(=O)=O` [Compound A69], 10.5%.
Regarding `CC1=Cc2cc3nccc(Nc4cnc5scnc5c4)c3cc2S1(=O)=O` [Compound A45], the viability at 20 µM is 27.6%.
Still for that read-out and setting: for `CC1=Cc2cc3nccc(Nc4cc(O)cc(F)c4)c3cc2S1(=O)=O` [Compound A59] the value was 27.9%; for `CC1=C(C)S(=O)(=O)c2cc3c(Nc4n[nH]c5ccc(F)cc45)ccnc3cc21` [Compound A84], 18.1%; for `O=S1(=O)C=C(C2CC2)c2cc3nccc(Nc4ccc5nc[nH]c5c4)c3cc21` [Compound A94], 28.9%.
The same measure, in the same setting: for `CC1=Cc2cc3nccc(Nc4ccc5c(c4)C(=O)NCC5)c3cc2S1(=O)=O` [Compound A43] the value was 48.8%.
On to `CC1=Cc2cc3nccc(Nc4ccc(O)cc4C)c3cc2S1(=O)=O` [Compound A51], for which the viability at 20 µM worked out at 16.1%.
For the compound `O=S1(=O)CC2(COC2)c2cc3nccc(Nc4ccc5scnc5c4)c3cc21` [Compound B28, 8′-(benzo[d]thiazol-5-ylamino)-2′H-spiro[oxetane-3,3′-thieno[2,3-g]quinoline] 1′, 1′-dioxide], the viability at 20 µM was 15%.
Consider `CC1=Cc2cc3nccc(Nc4ccc(O)c(F)c4)c3cc2S1(=O)=O` [Compound A54], for which the viability at 20 µM is 31.9%.
Still for that read-out and setting: for `CC1=Cc2cc3nccc(Nc4ccc(O)c(Cl)c4)c3cc2S1(=O)=O` [Compound A55] the value was 25.6%; for `CN(C)CCOC1=CS(=O)(=O)c2cc3c(Nc4ccc5scnc5c4)ccnc3cc21` [Compound A112], 37.2%.
Same read-out and setting: for `O=S1(=O)C=C(Br)c2cc3nccc(Nc4ccc5scnc5c4)c3cc21` [Compound A1, 8-(benzo[d]thiazol-5-ylamino)-3-bromothieno[2,3-g]quinoline 1,1-dioxide] the value was 4.5%; for `Nc1cc(C2=CS(=O)(=O)c3cc4c(Nc5ccc6scnc6c5)ccnc4cc32)ccn1` [Compound A29], 1.1%.
As for `CC1=Cc2cc3nccc(Nc4cc(F)cc(F)n4)c3cc2S1(=O)=O` [Compound A70], the viability at 20 µM turned out to be 16.5%.
Turning to `CC1=CS(=O)(=O)c2cc3c(Nc4cc(O)ccc4F)ccnc3cc21` [Compound A79], the viability at 20 µM was 39.4%.
The same measure, in the same setting: the value for `CC1c2cc3nccc(Nc4ccc5scnc5c4)c3cc2S(=O)(=O)C1(C)CC1CC1` (centres unmarked) [Compound B7] was 19.1%; that for `CC1(C)C(=O)c2cc3nccc(Nc4n[nH]c5ccc(F)cc45)c3cc2S1(=O)=O` [Compound B19] was 7.2%; that for `CC1=CS(=O)(=O)c2cc3c(Nc4cc(N)ccc4C)ccnc3cc21` [Compound A78] was 10.5%.
On the same count and under the same terms, for `Cc1n[nH]c(Nc2ccnc3cc4c(cc23)S(=O)(=O)C(C)(C)C4=O)c1C` [Compound B18] the value was 22.7%.

By EC50 is commonly meant the concentration at which the effect is half-maximal. Low values mean greater potency, high ones weaker potency.

These data come from US12612413B2, “Heteroaryl compounds as inhibitors of programmed necrosis pathway, composition and method using the same” (ACCRO BIOSCIENCE INC., priority 2020, dated 2026).
